Literature values as cited in US5831004A, “Inhibitors of metalloproteases, pharmaceutical compositions comprising same and methods of their use” (Affymax Technologies N.V., priority 1995, dated 1998).

Target: T1, human rheumatoid synovial collagenase (Homo sapiens, UniProt P03956)
T1 sequence (P03956 100-469): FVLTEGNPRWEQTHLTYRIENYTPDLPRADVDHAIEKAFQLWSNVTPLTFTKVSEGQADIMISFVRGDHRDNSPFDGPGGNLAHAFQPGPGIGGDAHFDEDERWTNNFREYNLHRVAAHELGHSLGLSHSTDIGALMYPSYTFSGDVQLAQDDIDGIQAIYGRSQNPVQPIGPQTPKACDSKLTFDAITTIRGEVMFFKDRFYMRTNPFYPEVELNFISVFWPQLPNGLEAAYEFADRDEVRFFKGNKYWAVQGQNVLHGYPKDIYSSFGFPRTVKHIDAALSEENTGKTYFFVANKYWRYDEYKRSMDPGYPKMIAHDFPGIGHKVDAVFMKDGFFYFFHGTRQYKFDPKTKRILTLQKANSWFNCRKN
Conditions: cited from earlier work

## CNC(=O)[C@H](Cc1ccc(OC)cc1)NC(=O)[C@H](CC(C)C)NC(CCNC(=O)OCc1ccccc1)C(=O)O (stereo partly drawn) [N-[3-(benzyloxy-carbonyl)amino-1-carboxy-n-propyl]-L-leucyl-O-methyl-L-tyrosine, N-methylamide]
  IC50: < 8 µM
